Experimental data published in patent US8106055B2, “Substituted amide compounds” (Gruenenthal GmbH, priority 2007, dated 2012).

What was measured:
[1] = biological target: T1, bradykinin 1 receptor (B1R) of the rat (Rattus norvegicus, UniProt P97583); test: Functional investigation on the rat bradykinin 1 receptor (B1R), Ca2+ FLIPR assay in CHO K1 rB1R cells; format: cell-based; conditions: B1R antagonism rat; test substance 10 μM; Ca2+ FLIPR, CHO K1 rB1R cells
T1 construct: expressed in transfected cells; host or cells: CHO K1 cells
T1 sequence (P97583 1-337): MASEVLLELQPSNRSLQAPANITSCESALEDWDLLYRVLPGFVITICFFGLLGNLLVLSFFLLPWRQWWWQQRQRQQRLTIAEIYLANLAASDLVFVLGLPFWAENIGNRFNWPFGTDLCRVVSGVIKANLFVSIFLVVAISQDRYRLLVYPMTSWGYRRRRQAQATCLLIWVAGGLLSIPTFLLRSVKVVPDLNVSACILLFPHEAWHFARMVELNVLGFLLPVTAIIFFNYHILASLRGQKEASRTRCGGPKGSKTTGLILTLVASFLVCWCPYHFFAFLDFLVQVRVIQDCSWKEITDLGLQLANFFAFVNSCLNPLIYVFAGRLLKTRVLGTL
Summary of the method: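 Fluo-4 Ca2+ readout, peak fluorescence. Stable CHO K1 transfectants; compound pre-incubated 10-20 min, then EC80 agonist—Lys-Des-Arg9-BK for hB1R, Des-Arg9-BK for rB1R. % inhibition vs maximal inhibition; IC50 from multiple concentrations, duplicate/triplicate, ≥2 independent runs.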

human μ opiate receptor = biological target: T2, human μ opiate receptor (Homo sapiens, UniProt P35372); test: Affinity for the human μ opiate receptor ([3H]-naloxone displacement, CHO-K1 receptor membrane preparation, SPA); format: binding; conditions: test concentration of 1 μM
T2 construct: purchased PerkinElmer Life Sciences, Zaventem, Belgium RB-HOM; host or cells: CHO-K1 cells (membrane preparation)
T2 sequence (P35372 whole entry): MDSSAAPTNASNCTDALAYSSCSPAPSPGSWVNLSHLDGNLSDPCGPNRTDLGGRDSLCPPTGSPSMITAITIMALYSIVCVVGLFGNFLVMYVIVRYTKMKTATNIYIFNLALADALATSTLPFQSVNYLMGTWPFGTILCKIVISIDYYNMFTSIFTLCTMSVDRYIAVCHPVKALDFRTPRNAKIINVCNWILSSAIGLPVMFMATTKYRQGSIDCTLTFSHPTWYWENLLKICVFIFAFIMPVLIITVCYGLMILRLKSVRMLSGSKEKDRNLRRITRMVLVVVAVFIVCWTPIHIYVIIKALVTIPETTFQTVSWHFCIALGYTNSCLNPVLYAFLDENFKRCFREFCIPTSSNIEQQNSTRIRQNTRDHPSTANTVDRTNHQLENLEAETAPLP
Summary of the method: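 Test compounds, 1 nmol/l [3H]-naloxone and CHO-K1 membranes bearing the human μ opiate receptor are combined with WGA-SPA beads. After 90 minutes at room temperature, plates are centrifuged and radioactivity counted. Specific-binding inhibition at 1 μmol/l is given in percent.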

Row | SMILES | B1R Ant. r [10 μM] % Inhibition [1] [%] | μ (binding on the μ opioid receptor, % inhibition) (human μ opiate receptor) [%]
1 | CN(C)C(c1cccc(F)c1)C1CCC(NC(=O)COCCN2CCN(S(=O)(=O)c3ccccc3)CC2)CC1 (centres unmarked) [Example 364] | −9 | 58
2 | COc1cc(C)c(S(=O)(=O)N2CCC(OCC(=O)NCCC3CCC(C(c4ccc(Cl)cc4)N(C)C)CC3)C2)c(C)c1C (centres unmarked) [Example 412] | −5 | 50
3 | CN(C)C(c1ccc(F)cc1)C1CCC(CNC(=O)COCCN(C)S(=O)(=O)c2ccc(Cl)cc2)CC1 (centres unmarked) [Example 399] | 29 | 52
4 | COc1cc(C)c(S(=O)(=O)N2CCN(CCOCC(=O)NCCC3CCC(C(c4ccc(F)cc4)N(C)C)CC3)CC2)c(C)c1C (centres unmarked) [Example 387] | −2 | 53
5 | CN(C)C(c1ccc(Cl)cc1)C1CCC(CCNC(=O)COCC2CCCN(S(=O)(=O)c3ccccc3)C2)CC1 (centres unmarked) [Example 425] | 30 | 48
6 | CN(C)C(c1ccc(F)cc1)C1CCC(CNC(=O)COC2CCN(S(=O)(=O)c3ccc(Cl)cc3Cl)C2)CC1 (centres unmarked) [Example 391] | 32 | 56
7 | CN(C)C(c1cccc(F)c1)C1CCC(CCNC(=O)COC2CCN(S(=O)(=O)c3ccccc3)C2)CC1 (centres unmarked) [Example 376] | 12 | 62
8 | CN(C)C(c1ccc(F)cc1)C1CCC(CNC(=O)COC2CCN(S(=O)(=O)c3cccc(C(F)(F)F)c3)C2)CC1 (centres unmarked) [Example 402] | 45 | 53
9 | COc1ccc(S(=O)(=O)N2Cc3ccccc3CC2COCC(=O)NCCC2CCC(C(c3ccc(F)cc3)N(C)C)CC2)cc1 (centres unmarked) [Example 389] | 21 | 58
10 | COc1ccc(S(=O)(=O)N2CCCCC2CCOCC(=O)NCCC2CCC(C(c3ccc(F)cc3)N(C)C)CC2)cc1 (centres unmarked) [Example 398] | 56 | 59
11 | COc1ccc(S(=O)(=O)N(C)CCOCC(=O)NCC2CCC(C(c3ccc(Cl)cc3)N(C)C)CC2)cc1OC (centres unmarked) [Example 379] | 49 | 45
12 | COc1ccc(S(=O)(=O)N2CCC(OCC(=O)NCCC3CCC(C(c4ccc(F)cc4)N(C)C)CC3)C2)cc1OC (centres unmarked) [Example 430] | 21 | 56
13 | CN(C)C(c1ccc(F)cc1)C1CCC(CCNC(=O)COCCN(C)S(=O)(=O)c2ccc(OC(F)(F)F)cc2)CC1 (centres unmarked) [Example 446] | 33 | 51
14 | CN(C)C(c1ccc(F)cc1)C1CCC(NC(=O)COCCN(C)S(=O)(=O)c2cccc(C(F)(F)F)c2)CC1 (centres unmarked) [Example 438] | −10 | 51
15 | COc1cc(C)c(S(=O)(=O)N2CCC(OCC(=O)NCC3CCC(C(c4ccc(Cl)cc4)N(C)C)CC3)C2)c(C)c1 (centres unmarked) [Example 403] | 84 | 52
16 | COc1cc(C)c(S(=O)(=O)N(CCOCC(=O)NC2CCC(C(c3cccc(F)c3)N(C)C)CC2)Cc2ccccc2)c(C)c1C (centres unmarked) [Example 419] | 34 | 53
17 | CN(C)C(c1cccc(F)c1)C1CCC(CCNC(=O)COC2CCN(S(=O)(=O)c3ccccc3)CC2)CC1 (centres unmarked) [Example 444] | −5 | 56

Row | SMILES | B1R Ant. r [10 μM] % Inhibition [1] [%] | μ (binding on the μ opioid receptor, % inhibition) (human μ opiate receptor) [%]
18 | CN(C)C(c1ccc(F)cc1)C1CCC(NC(=O)COCCN(C)S(=O)(=O)c2ccc(Cl)cc2)CC1 (centres unmarked) [Example 406] | 12 | 51
19 | CCN(CCOCC(=O)NC1CCC(C(c2ccc(F)cc2)N(C)C)CC1)S(=O)(=O)c1c(C)cc(OC)c(C)c1C (centres unmarked) [Example 396] | 68 | 60
20 | COc1cc(C)c(S(=O)(=O)N(C)CCOCC(=O)NCCC2CCC(C(c3ccc(Cl)cc3)N(C)C)CC2)c(C)c1 (centres unmarked) [Example 378] | 101 | 58
21 | CN(C)C(c1ccc(F)cc1)C1CCC(CCNC(=O)COCCN(C)S(=O)(=O)c2ccc(Cl)cc2)CC1 (centres unmarked) [Example 377] | 25 | 59
22 | CN(C)C(c1ccc(Cl)cc1)C1CCC(CNC(=O)COC2CCN(S(=O)(=O)c3ccc(Cl)cc3)C2)CC1 (centres unmarked) [Example 384] | 25 | 55
23 | COc1cc(C)c(S(=O)(=O)N2CCN(CCOCC(=O)NCC3CCC(C(c4ccc(Cl)cc4)N(C)C)CC3)CC2)c(C)c1C (centres unmarked) [Example 429] | 13 | 54
24 | Cc1ccc(S(=O)(=O)N2CCC(OCC(=O)NCC3CCC(C(c4ccc(F)cc4)N(C)C)CC3)C2)cc1 (centres unmarked) [Example 447] | 3 | 44
25 | COc1cc(C)c(S(=O)(=O)N(CCOCC(=O)NCCC2CCC(C(c3cccc(F)c3)N(C)C)CC2)Cc2ccccc2)c(C)c1C (centres unmarked) [Example 436] | 10 | 57
26 | CN(C)C(c1ccc(F)cc1)C1CCC(NC(=O)COC2CCN(S(=O)(=O)c3ccc(Cl)cc3)C2)CC1 (centres unmarked) [Example 370] | 3 | 59
27 | COc1cc(C)c(S(=O)(=O)N2CCCC(OCC(=O)NC3CCC(C(c4ccc(F)cc4)N(C)C)CC3)C2)c(C)c1C (centres unmarked) [Example 435] | 14 | 48
28 | COc1cc(C)c(S(=O)(=O)N(CCOCC(=O)NC2CCC(C(c3cccc(F)c3)N(C)C)CC2)Cc2ccccc2)c(C)c1 (centres unmarked) [Example 372] | 22 | 59
29 | COc1ccc(S(=O)(=O)N2Cc3ccccc3CC2COCC(=O)NCC2CCC(C(CCc3ccccc3)N(C)C)CC2)cc1 (centres unmarked) [Example 373] | 12 | 62
30 | CN(C)C(c1ccc(Cl)cc1)C1CCC(CCNC(=O)COC2CCN(S(=O)(=O)c3ccc(F)cc3)C2)CC1 (centres unmarked) [Example 440] | 31 | 47
31 | CN(C)C(c1ccc(Cl)cc1)C1CCC(CCNC(=O)COC2CCN(S(=O)(=O)c3cccc(C(F)(F)F)c3)C2)CC1 (centres unmarked) [Example 431] | 34 | 45
32 | COc1cc(C)c(S(=O)(=O)N2CCC(OCC(=O)NCC3CCC(C(c4ccc(F)cc4)N(C)C)CC3)C2)c(C)c1C (centres unmarked) [Example 427] | 8 | 50
33 | Cc1ccc(S(=O)(=O)N(C)CCOCC(=O)NC2CCC(C(c3ccc(F)cc3)N(C)C)CC2)cc1 (centres unmarked) [Example 448] | 12 | 41
34 | COc1cc(C)c(S(=O)(=O)N2CCC(CCOCC(=O)NCCC3CCC(C(c4cccc(F)c4)N(C)C)CC3)CC2)c(C)c1C (centres unmarked) [Example 397] | −11 | 67
